Where a name gives a salt, the structure may show the parent alone.
Assays:
[1] = target: CDK1 (Homo sapiens, UniProt P06493); settings: cited from earlier work
[2] = target: CDK9 (Homo sapiens, UniProt P50750); design: key: + is used to indicate the potency of the inhibitor; ++++ > +++ > ++ > +; + is used to indicate the potency of the inhibitor; ++++ > +++ > ++ > +; + is used to indicate the potency of the inhibitor; ++++ > +++ > ++ > +; + is used to indicate the potency of the inhibitor; ++++ > +++ > ++ > +; ◯ refers to compounds with inhibitory effects on the related isoform, but without specific value; settings: cited from earlier work
CDK9, sequence (P50750 whole entry, canonical isoform): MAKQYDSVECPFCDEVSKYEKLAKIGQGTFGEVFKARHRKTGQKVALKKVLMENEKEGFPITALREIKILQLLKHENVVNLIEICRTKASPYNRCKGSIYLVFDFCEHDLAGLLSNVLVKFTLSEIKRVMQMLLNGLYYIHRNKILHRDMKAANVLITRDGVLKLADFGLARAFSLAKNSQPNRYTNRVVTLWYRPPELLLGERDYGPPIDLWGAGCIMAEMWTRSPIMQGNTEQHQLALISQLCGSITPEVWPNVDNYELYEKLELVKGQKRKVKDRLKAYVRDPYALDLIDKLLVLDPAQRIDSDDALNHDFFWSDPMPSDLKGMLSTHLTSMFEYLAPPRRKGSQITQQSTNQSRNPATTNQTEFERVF
CDK9, sequence (O60563 whole entry, further chain, canonical isoform): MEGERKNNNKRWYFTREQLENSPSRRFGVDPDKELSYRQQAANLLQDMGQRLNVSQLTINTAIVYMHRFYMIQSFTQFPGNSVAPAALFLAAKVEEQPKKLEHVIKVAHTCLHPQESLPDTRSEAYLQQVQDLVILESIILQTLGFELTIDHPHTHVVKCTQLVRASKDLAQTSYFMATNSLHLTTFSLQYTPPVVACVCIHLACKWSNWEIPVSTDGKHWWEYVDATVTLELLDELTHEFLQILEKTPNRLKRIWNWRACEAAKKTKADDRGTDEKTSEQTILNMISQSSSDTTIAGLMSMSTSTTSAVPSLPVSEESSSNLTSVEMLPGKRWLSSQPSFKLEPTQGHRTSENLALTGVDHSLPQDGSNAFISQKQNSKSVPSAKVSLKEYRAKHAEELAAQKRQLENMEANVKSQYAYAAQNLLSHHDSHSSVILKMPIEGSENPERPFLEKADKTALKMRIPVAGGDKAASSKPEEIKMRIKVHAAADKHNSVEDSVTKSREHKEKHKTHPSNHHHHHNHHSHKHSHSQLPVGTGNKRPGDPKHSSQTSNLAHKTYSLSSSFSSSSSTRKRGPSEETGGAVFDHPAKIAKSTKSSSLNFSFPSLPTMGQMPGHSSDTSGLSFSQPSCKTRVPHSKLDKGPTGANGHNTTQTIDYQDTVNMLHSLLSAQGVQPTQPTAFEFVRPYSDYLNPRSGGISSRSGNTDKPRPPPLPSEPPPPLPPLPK

[3] = target: CDK5 (Homo sapiens, UniProt Q00535); settings: cited from earlier work
CDK5, sequence (Q15078 99-307): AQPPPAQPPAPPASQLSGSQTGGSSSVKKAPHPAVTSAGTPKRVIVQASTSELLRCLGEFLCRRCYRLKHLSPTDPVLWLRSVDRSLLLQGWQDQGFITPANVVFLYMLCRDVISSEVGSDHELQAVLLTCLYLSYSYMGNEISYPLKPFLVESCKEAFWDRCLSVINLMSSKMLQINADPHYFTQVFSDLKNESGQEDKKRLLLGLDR
CDK5, sequence (Q00535 whole entry, canonical isoform): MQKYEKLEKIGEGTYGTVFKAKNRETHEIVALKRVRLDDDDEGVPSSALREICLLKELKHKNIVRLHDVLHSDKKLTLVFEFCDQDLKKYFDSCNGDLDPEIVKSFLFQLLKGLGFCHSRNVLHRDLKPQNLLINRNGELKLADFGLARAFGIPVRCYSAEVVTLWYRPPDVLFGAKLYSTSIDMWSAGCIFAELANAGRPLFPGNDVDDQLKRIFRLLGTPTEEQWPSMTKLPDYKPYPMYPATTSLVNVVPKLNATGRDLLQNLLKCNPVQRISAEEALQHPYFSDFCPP

[4] = system: CLK; design: key: + is used to indicate the potency of the inhibitor; ++++ > +++ > ++ > +; + is used to indicate the potency of the inhibitor; ++++ > +++ > ++ > +; + is used to indicate the potency of the inhibitor; ++++ > +++ > ++ > +; + is used to indicate the potency of the inhibitor; ++++ > +++ > ++ > +; ◯ refers to compounds with inhibitory effects on the related isoform, but without specific value; settings: cited from earlier work
[5] = target: CDK2 (Homo sapiens, UniProt P24941); settings: cited from earlier work
[6] = target: CDK4 (Homo sapiens, UniProt P11802); settings: cited from earlier work
CDK4, sequence (P11802 whole entry, species assumed): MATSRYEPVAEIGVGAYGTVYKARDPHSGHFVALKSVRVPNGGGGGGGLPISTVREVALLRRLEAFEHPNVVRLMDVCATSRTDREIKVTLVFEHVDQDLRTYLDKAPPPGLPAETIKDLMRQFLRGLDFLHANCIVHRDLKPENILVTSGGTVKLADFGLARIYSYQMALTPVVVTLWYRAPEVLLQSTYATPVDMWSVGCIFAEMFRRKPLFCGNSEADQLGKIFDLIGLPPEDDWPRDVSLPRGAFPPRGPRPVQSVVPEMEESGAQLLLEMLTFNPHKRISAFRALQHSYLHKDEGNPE
CDK4, sequence (P24385 whole entry partner, species assumed): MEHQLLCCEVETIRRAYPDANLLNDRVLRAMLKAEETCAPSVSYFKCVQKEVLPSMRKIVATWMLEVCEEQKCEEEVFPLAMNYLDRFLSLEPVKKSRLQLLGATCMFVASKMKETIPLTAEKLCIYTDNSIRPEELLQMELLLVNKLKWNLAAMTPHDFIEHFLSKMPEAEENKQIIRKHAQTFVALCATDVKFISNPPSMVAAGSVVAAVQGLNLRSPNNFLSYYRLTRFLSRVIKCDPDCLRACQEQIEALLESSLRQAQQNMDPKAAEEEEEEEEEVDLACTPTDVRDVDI

[7] = system: TMPRSS2, CTSL and FURIN; format: cell-based, human
[8] = target: CDK6 (Homo sapiens, UniProt Q00534); design: key to the marks not given beside the values; settings: cited from earlier work
CDK6, sequence (Q00534 whole entry): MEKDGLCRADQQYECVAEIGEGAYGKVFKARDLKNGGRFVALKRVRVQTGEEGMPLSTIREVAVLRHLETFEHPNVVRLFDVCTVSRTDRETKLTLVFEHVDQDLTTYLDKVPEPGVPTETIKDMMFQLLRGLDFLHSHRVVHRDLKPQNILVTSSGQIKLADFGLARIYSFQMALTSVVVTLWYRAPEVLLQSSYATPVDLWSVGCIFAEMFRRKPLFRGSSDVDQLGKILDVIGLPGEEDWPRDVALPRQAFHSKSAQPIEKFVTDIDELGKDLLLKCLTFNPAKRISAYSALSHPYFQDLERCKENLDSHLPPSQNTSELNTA
CDK6, sequence (P30281 whole entry, further chain): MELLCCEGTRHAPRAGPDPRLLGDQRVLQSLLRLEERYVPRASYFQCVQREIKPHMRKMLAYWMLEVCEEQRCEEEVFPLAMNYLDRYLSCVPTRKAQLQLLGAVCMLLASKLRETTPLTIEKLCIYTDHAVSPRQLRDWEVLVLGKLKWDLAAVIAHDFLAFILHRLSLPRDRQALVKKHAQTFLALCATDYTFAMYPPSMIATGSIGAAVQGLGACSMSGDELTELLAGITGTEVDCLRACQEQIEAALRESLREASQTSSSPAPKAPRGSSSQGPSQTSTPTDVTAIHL

[9] = system: ACE2; format: cell-based, human
[10] = target: CDK7 (Homo sapiens, UniProt P50613); settings: cited from earlier work
CDK7, sequence (P50613 whole entry): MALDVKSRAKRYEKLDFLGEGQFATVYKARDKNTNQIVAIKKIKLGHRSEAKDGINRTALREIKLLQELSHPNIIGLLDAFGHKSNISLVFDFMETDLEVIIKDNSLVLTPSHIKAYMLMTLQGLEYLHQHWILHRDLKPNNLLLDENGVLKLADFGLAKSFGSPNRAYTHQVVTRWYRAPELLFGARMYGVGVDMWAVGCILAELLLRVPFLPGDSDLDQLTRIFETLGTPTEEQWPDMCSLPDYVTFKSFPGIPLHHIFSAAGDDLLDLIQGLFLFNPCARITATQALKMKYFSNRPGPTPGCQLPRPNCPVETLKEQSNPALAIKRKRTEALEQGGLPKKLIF
CDK7, sequence (P51946 whole entry, further chain): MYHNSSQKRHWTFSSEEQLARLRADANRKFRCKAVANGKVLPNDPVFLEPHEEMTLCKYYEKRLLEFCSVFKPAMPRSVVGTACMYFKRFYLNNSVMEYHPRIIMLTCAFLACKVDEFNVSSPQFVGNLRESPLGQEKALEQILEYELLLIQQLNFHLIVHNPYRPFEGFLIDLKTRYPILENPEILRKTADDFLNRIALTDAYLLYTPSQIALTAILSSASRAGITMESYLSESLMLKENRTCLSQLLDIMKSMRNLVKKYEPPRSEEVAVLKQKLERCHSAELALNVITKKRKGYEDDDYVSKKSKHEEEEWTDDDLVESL
CDK7, sequence (P51948 whole entry, further chain): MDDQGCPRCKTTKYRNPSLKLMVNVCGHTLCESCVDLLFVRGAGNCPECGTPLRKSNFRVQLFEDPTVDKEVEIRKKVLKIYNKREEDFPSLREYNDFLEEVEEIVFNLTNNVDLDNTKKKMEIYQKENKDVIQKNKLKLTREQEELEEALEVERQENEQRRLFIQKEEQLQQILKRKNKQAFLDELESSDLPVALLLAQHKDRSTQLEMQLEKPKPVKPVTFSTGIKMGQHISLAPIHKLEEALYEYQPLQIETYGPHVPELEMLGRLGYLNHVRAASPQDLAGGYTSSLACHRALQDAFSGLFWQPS

[11] = system: ACE2, TMPRSS2, and CTSL; experiment: mRNA levels in normal human small airway epithelial cells (qRT-PCR); format: cell-based; settings: normal HSAEC, rhCHI3L1 500 ng/mL, 24 hours
Protocol: HSAEC were incubated with the noted concentrations of recombinant rhCHI3L1 for 24 hours. The levels of mRNA encoding ACE2, TMPRSS2, and CTSL were assessed via qRT-PCR. The levels are expressed in relationship to GAPDH controls. *p<0.05 (Student's t-test).
(§1) Total cellular RNA was obtained using TRIzol reagent (ThermoFisher Scientific) followed by RNA extraction using RNeasy Mini Kit (Qiagen, Germantown, MD) according to the manufacturer's instructions. mRNA was measured and used for real time (RT)-PCR as described previously.^79,80 The primer sequences used in these studies are summarized in Table 1. Ct values of the test genes were normalized to the internal housekeeping gene β-actin.
In the present study, normal HSAEC were incubated with 0, 100 ng/mL, or 500 ng/mL of rhCHI3L1 for 24 hours at 37° C. The levels of mRNA encoding ACE2, TMPRSS2, and CTSL were assessed via qRT-PCR and expressed in relationship to GAPDH controls.

[12] = system: pseudovirus with the ancestral G614 S protein; format: cell-based, SARS-CoV-2
[13] = system: ACE2; experiment: Immunocytochemical evaluation of ACE2 in Calu-3 cells; format: cell-based, human; settings: CHI3L1 250 ng/mL; double labeled ICC
[14] = system: pseudovirus containing the S protein (D614 and G614 variants); format: cell-based; settings: Calu-3 cells, rCHI3L1 24 hours, GFP
[15] = system: ACE2, TMPRSS2, and CTSL; experiment: mRNA levels in A549 cells (qRT-PCR); format: cell-based, human; settings: 24 hr
Protocol: Cells were incubated with rhCHI3L1 from a commercial source (R&D Inc.) and rhCHI3L1 generated at Brown University (Brown) and compared to vehicle controls. mRNA was then extracted and the levels of mRNA for ACE2 and CTSL were evaluated by real time qRT-PCR. Levels were expressed in relationship to GAPDH controls. *p<0.05; **p<0.01 (Student's t-test).
A549 cells were incubated with the noted concentrations of rhCHI3L1 for the note amounts of time. The levels of mRNA encoding ACE2, TMPRSS2, and CTSL were assessed via qRT-PCR. The statistics compare cells incubated with vehicle control (nothing tested, NT) and cells incubated with 250 ng/ml of rhCHI3L1. […]
as §1, with “Ct values of the test genes were normalized to the internal housekeeping gene β-actin.” left out
In the first study, A549 cells were incubated with rhCHI3L1 from a commercial source (R&D Inc.) and rhCHI3L1 generated at Brown University (Brown). The cells were incubated for 24 hr with stimulation of rhCHI3L1 (500 ng/mL) at 37° C. mRNA was then extracted and the levels of mRNA for ACE2 and CTSL were evaluated by real time qRT-PCR and compared to vehicle controls. […]

[16] = system: pseudoviruses with delta S proteins; format: cell-based, SARS-CoV-2
[17] = Calu-3 cells, rhCHI3L1 250 ng/mL, 24 hours, vs vehicle

CDK1, sequence (P06493 whole entry, species assumed, canonical isoform): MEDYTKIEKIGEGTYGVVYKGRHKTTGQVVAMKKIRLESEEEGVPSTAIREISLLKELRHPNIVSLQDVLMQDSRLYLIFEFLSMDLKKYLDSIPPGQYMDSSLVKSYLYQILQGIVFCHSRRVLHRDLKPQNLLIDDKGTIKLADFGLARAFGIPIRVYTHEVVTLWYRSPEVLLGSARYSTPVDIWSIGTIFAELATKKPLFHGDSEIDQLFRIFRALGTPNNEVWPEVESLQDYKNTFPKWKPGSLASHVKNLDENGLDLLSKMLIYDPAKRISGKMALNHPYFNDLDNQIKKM
CDK1, sequence (P14635 whole entry partner, species assumed, canonical isoform): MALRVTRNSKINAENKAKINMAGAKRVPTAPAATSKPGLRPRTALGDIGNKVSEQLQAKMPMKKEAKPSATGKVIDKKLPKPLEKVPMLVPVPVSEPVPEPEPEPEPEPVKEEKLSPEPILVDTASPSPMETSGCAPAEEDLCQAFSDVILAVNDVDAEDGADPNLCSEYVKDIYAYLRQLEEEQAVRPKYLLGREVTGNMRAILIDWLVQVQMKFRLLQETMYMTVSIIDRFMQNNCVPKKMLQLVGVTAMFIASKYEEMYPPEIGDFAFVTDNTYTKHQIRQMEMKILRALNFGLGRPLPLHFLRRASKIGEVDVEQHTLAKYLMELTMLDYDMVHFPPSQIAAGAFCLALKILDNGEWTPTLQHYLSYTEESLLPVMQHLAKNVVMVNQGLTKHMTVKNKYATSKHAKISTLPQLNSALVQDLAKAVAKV

Compound: CC(C)(C)c1cnc(CSc2cnc(NC(=O)C3CCNCC3)s2)o1 [SNS-032]
- Inhibitory potency CDK1 [1]: +
- Inhibitory potency CDK9 [2]: ++++
- Inhibitory potency CDK5 [3]: +

Compound: NVP-LCQ195
- Inhibitory potency CLK [4]: ◯
- Inhibitory potency CDK1 [1]: ++++
- Inhibitory potency CDK9 [2]: ◯
- Inhibitory potency CDK2 [5]: +++
- Inhibitory potency CDK5 [3]: ++++

Compound: Cn1cc(-c2cnn3c(N)c(Br)c([C@@H]4CCCNC4)nc23)cn1 [MK-8776]
- Inhibitory potency CDK2 [5]: ++

Compound: CCCCOc1c(C(=O)c2c(F)cc(C)cc2F)c[nH]c2nncc1-2 [BMS-265246]
- Inhibitory potency CDK1 [1]: ++++
- Inhibitory potency CDK2 [5]: ++++
- Inhibitory potency CDK4 [6]: ++

Compound: Purvalanol A
- Inhibitory potency CDK4 [6]: +

Compound: NU6027
- Inhibitory potency CDK1 [1]: +

Compound: PHA-767491
- Inhibitory potency CDK1 [1]: ++
- Inhibitory potency CDK9 [2]: +++
- Inhibitory potency CDK2 [5]: ++
- Inhibitory potency CDK5 [3]: +

Compound: Ro-3306
- Inhibitory potency CDK1 [1]: +++

Compound: ML167
- Inhibitory potency CLK [4]: ++

Compound: CN1CC[C@H](c2c(O)cc(O)c3c(=O)cc(-c4ccccc4Cl)oc23)[C@H](O)C1 [Flavopiridol]
- basal and CHI3L1-stimulated expression of TMPRSS2, CTSL and FURIN [7]: potently decreased
- Inhibitory potency CDK1 [1]: +++
- Inhibitory potency CDK6 [8]: ++
- Inhibitory potency CDK2 [5]: +++
- ability of CHI3L1 to stimulate ACE2 mRNA accumulation [9]: potently inhibited
- levels of basal ACE2 expression [9]: diminished
- Inhibitory potency CDK7 [10]: +
- Inhibitory potency CDK4 [6]: +++

Compound: TG003
- Inhibitory potency CLK [4]: +++

Compound: rhCHI3L1: recombinant human CHI3L1 (chitinase 3 like 1) protein, from R&D Inc. or generated at Brown University
- levels of mRNA encoding ACE2, TMPRSS2, and CTSL [11]: significantly upregulated
- uptake of pseudovirus [12]: potent stimulator
- levels of mRNA encoding TMPRSS2, CTSL and FURIN [7, 17]: significantly upregulated
- Calu-3 cell ACE2 accumulation [13]: augmented
- cellular integration of S proteins [14]: stimulated
- levels of mRNA encoding ACE2 [9, 17]: significantly upregulated
- levels of mRNA encoding Ace2 and cathepsin L (CTSL) ([15]; rhCHI3L1 500 ng/mL, 37° C.): significantly upregulated
- levels of mRNA encoding ACE2, TMPRSS2, and CTSL ([15]; rhCHI3L1 250 or 500 ng/mL): significantly upregulated
- delta pseudovirus infection [16]: augmented

Compound: Kenpaulione
- Inhibitory potency CDK1 [1]: +
- Inhibitory potency CDK2 [5]: +
- Inhibitory potency CDK5 [3]: +

Compound: Cc1ncc(-c2ccnc(Nc3ccc(S(C)(=O)=O)cc3)n2)n1C(C)C [AZD5438]
- Inhibitory potency CDK1 [1]: +++
- Inhibitory potency CDK9 [2]: +++

Compound: LDC000067
- Inhibitory potency CDK1 [1]: +
- Inhibitory potency CDK9 [2]: +++
- Inhibitory potency CDK4 [6]: +

Compound: Purvalanol B
- Inhibitory potency CDK5 [3]: ++++

Compound: CGP60474
- Inhibitory potency CDK1 [1]: +++
- Inhibitory potency CDK2 [5]: +++

Compound: CNC(=O)c1nn(C)c2c1C(C)(C)Cc1cnc(Nc3ccc(N4CCN(C)CC4)cc3)nc1-2 [Milciclib]
- Inhibitory potency CDK1 [1]: +
- Inhibitory potency CDK2 [5]: +++
- Inhibitory potency CDK7 [10]: ++
- Inhibitory potency CDK5 [3]: +
- Inhibitory potency CDK4 [6]: ++

Compound: C[C@H]1CC[C@H](n2c3cnccc3c3cnc(Nc4ccc5c(n4)CCN(C(=O)CO)C5)nc32)CC1 [AMG-925]
- Inhibitory potency CDK1 [1]: +
- Inhibitory potency CDK4 [6]: ++++

Compound: NU2058
- Inhibitory potency CDK1 [1]: +

Compound: O=C(NC1CCNCC1)c1[nH]ncc1NC(=O)c1c(Cl)cccc1Cl [AT7519]
- Inhibitory potency CDK7 [10]: +

Compound: O=C(NC1CCNCC1)c1[nH]ncc1NC(=O)c1c(Cl)cccc1Cl [AT7519 HCl]
- Inhibitory potency CDK1 [1]: ++
- Inhibitory potency CDK9 [2]: ++++
- Inhibitory potency CDK6 [8]: ++
- Inhibitory potency CDK5 [3]: +++
- Inhibitory potency CDK4 [6]: ++

Compound: COc1c(O)cc(O)c2c(=O)cc(-c3ccccc3)oc12 [Wogonin]
- Inhibitory potency CDK9 [2]: ◯

Compound: Nc1nc(Nc2ccc(S(N)(=O)=O)cc2)nn1C(=O)c1c(F)cccc1F [JNJ-7706621]
- Inhibitory potency CDK1 [1]: ++++
- Inhibitory potency CDK6 [8]: ++
- Inhibitory potency CDK2 [5]: ++++
- Inhibitory potency CDK4 [6]: +

Compound: NU 6102
- Inhibitory potency CDK1 [1]: +++
- Inhibitory potency CDK4 [6]: +

Compound: CC(C)CC(=O)Nc1[nH]nc2c1CN(C(=O)C1CCN(C)CC1)C2(C)C [PHA-793887]
- Inhibitory potency CDK1 [1]: ++
- Inhibitory potency CDK9 [2]: ++
- Inhibitory potency CDK2 [5]: ++++
- Inhibitory potency CDK7 [10]: ++++
- Inhibitory potency CDK5 [3]: ++++
- Inhibitory potency CDK4 [6]: ++

Compound: Palbociclib Isethionate
- Inhibitory potency CDK6 [8]: +++

Compound: COc1ccc(CNc2nc(N(CCO)CCO)nc3c2ncn3C(C)C)cc1 [CVT 313]
- Inhibitory potency CDK1 [1]: +
- Inhibitory potency CDK2 [5]: +
- Inhibitory potency CDK4 [6]: +

Source: US20230312752A1 (Brown University, priority 2021, published 2023)
